Measurements as given in paper PMC6010098, “Synthesis, antitumour and antioxidant activities of novel α,β-unsaturated ketones and related heterocyclic analogues: EGFR inhibition and molecular modelling study” (Journal of Enzyme Inhibition and Medicinal Chemistry, 2018).
Like-named read-outs stand apart in the source and are kept apart here.

Legend:
HepG2 cells = assay: MTT antitumour assay, HepG2; format: cell-based; conditions: human hepato-cellular carcinoma cell line, mean ± SD, n = 3
Description: (§1) The evaluation of the antitumour activity was performed using tetrazolium salt MTT (3-(4,5-dimethyl-2-thiazolyl)-2,5-diphenyl-2H-tetrazolium bromide) assay as reported[62]^,[63].
(§2) The designed compounds were evaluated for their in vitro antitumour effects via the standard 3-(4,5-dimethylthiazol-2-yl)-2,5-diphenyltetrazolium bromide (MTT) method against a panel of four human tumour cell lines; namely, hepatocellular carcinoma cell line (HepG2), breast cancer cell line (MCF-7), human cervical cancer cell line (HeLa), and prostate cancer cell line (PC-3)[62]^,[63]^,[72]. The antitumour activities of the designed compounds 4–12, along with that of the reference drugs 5-FU and afatinib are shown in Table 1.

MCF-7 cells = assay: MTT antitumour assay, MCF-7; format: cell-based; conditions: MCF7, human breast adenocarcinoma cell line, mean ± SD, n = 3
Description: as §1, §2

HeLa cells = assay: MTT antitumour assay, HeLa; format: cell-based; conditions: human cervical epithelioid carcinoma cell line, mean ± SD, n = 3
Description: as §1
as §2, with “(PC-3)[62]^,[63]^,[72].” for “(PC-3)[62]^,[63]^,[72]. The antitumour activities of the designed compounds 4–12, along with that of the reference drugs 5-FU and afatinib are shown in Table 1.”

PC-3 cells = assay: MTT antitumour assay, PC-3; format: cell-based; conditions: human prostate cancer cell line, mean ± SD, n = 3
Description: as §1, §2

[1] = ABTS radical cation scavenging (antioxidant) assay; conditions: 20 µl of 1 mg/ml test sample (L-ascorbic acid 20 µl, 2 mM)
Description: The absorbance (Acontrol) of a green-blue solution (ABTS^+ radical solution) resulted from a mixture of ABTS and manganese dioxide (MnO2) and was recorded at λmax 734 nm, according to the reported procedure[64]^,[65]. The absorbance (Atest) was measured upon the addition of 20 µl of 1 mg/ml solution of the test sample in spectroscopic grade methanol/phosphate buffer (1:1 v/v) to the ABTS solution. The decrease in absorbance is expressed as % inhibition, which can be calculated from the following equation: % inhibition = Acontrol-Atest/Acontrol×100.
L-Ascorbic acid 20 µl (2 mM) solution was used as standard antioxidant (positive control). A blank sample was run using only methanol/phosphate buffer (1:1), while the negative control was run with ABTS and the methanol/phosphate buffer.
The assay is based on measuring the ability of the tested compounds to scavenge the long-life radical cation of ABTS[22]^,[43]^,[64]^,[65].

[2] = test system: HepG2, MCF-7, HeLa, and PC-3 cancer cell lines; assay: MTT antitumour assay, range over the four cell lines; format: cell-based, human; conditions: range over HepG2, MCF-7, HeLa, PC-3 (and over the compounds named), read-out: IC50 range against the tested cell lines
Description: as §1, §2

EGFR kinase = EGFR kinase (Homo sapiens, UniProt P00533); assay: ELISA-based EGFR kinase inhibition assay; conditions: for inhibition at 0.15 µM: read-out: % Inhibition EGFR, 0.15 μM; for inhibition at 0.31 µM: read-out: % Inhibition EGFR, 0.31 μM; for inhibition at 0.625 µM: read-out: % Inhibition EGFR, 0.625 μM; for inhibition at 1.25 µM: read-out: % Inhibition EGFR, 1.25 μM; for inhibition at 2.5 µM: read-out: % Inhibition EGFR, 2.5 μM; for inhibition at 5 µM: read-out: % Inhibition EGFR, 5.0 μM; for inhibition at 10 µM: read-out: % Inhibition EGFR, 10.0 μM; for Conc. (Average), ELISA read-out: duplicate wells, standards in ng/ml, cont 134.9
Chain of EGFR kinase (P00533 25-1210): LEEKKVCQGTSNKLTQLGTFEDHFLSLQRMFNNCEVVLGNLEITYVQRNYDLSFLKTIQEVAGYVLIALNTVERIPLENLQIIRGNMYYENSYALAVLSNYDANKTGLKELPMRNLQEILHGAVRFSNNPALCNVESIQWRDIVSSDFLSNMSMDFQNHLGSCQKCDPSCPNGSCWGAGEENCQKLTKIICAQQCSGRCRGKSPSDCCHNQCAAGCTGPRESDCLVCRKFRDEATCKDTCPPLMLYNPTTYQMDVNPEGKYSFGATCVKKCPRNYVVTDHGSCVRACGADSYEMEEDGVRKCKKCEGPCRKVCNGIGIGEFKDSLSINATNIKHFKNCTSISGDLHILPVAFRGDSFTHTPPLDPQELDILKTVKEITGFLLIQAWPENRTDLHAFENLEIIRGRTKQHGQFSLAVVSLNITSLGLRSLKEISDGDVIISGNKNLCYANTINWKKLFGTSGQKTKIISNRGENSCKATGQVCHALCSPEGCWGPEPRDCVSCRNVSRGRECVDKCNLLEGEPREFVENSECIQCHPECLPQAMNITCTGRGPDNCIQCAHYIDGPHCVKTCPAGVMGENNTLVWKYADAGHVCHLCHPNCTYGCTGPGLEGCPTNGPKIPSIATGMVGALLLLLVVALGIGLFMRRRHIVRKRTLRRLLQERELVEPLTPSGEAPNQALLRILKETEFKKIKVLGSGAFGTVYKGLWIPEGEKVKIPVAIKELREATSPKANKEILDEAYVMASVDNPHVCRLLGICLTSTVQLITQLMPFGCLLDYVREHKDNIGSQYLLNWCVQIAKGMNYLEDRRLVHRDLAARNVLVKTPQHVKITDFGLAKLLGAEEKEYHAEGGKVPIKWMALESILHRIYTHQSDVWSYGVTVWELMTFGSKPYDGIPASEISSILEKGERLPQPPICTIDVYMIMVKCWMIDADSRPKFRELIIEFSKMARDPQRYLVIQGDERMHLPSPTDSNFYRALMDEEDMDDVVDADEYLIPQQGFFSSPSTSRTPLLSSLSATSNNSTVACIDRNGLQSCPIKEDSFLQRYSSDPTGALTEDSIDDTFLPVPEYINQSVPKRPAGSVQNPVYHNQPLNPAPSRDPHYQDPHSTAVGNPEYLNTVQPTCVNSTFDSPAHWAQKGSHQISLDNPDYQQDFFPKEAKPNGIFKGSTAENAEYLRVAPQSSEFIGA

IC50 (HepG2 cells) | IC50 (MCF-7 cells) | IC50 (HeLa cells) | IC50 (PC-3 cells; PC-3, MTT) | IC50 ([2]; Homo sapiens) | IC50 (EGFR kinase) | % Inhibition EGFR (EGFR kinase; 0.15 μM) | % Inhibition EGFR (EGFR kinase; 0.31 μM) | % Inhibition EGFR (EGFR kinase; 0.625 μM) | % Inhibition EGFR (EGFR kinase; 1.25 μM) | % Inhibition EGFR (EGFR kinase; 2.5 μM) | % Inhibition EGFR (EGFR kinase; 5.0 μM) | % Inhibition EGFR (EGFR kinase; 10.0 μM) | inhibition at 0.15 µM (EGFR kinase) | inhibition at 0.31 µM (EGFR kinase) | inhibition at 0.625 µM (EGFR kinase) | inhibition at 1.25 µM (EGFR kinase) | inhibition at 2.5 µM (EGFR kinase) | inhibition at 5 µM (EGFR kinase) | Structure (SMILES) | %Inhibition of the ABTS radical cation [1] | other results
13 ± 0.87 µM | 13.7 ± 1.35 µM | 6.7 ± 0.67 µM | 9.1 ± 0.88 µM | 5.5 to 18.1 µM | 0.56 µM | 26.52% | 48.95% | 55.33% | 61.23% | 64.44% | 76.71% | 83.66% | 26.5% | 49% | 55.3% | 61.2% | 64.4% | 76.7% | CCN1CCC(=O)C(=Cc2ccc(OC3CCCC3)cc2)C1 [6b, 3-(4-(Cyclopentyloxy)benzylidene)-1-ethylpiperidin-4-one] | 55.1% | inhibition at 10 µM (EGFR kinase): 83.7%; Conc. (Average), ELISA read-out (EGFR kinase; sample at 0.15uM): 99.12; Conc. (Average), ELISA read-out (EGFR kinase; sample at 0.31uM): 68.86; Conc. (Average), ELISA read-out (EGFR kinase; sample at 0.62uM): 60.25; Conc. (Average), ELISA read-out (EGFR kinase; sample at 1.25uM): 52.29; Conc. (Average), ELISA read-out (EGFR kinase; sample at 2.5uM): 47.96; Conc. (Average), ELISA read-out (EGFR kinase; sample at 5uM): 31.41; Conc. (Average), ELISA read-out (EGFR kinase; sample at 10uM): 22.04
7.2 ± 0.24 µM | 5.6 ± 0.36 µM | 5.5 ± 0.45 µM | 7.8 ± 0.56 µM | 5.5 to 18.1 µM | 2.16 µM | 6.96% | 26.25% | 43.85% | 47.28% | 50.51% | 60.72% | 64.88% | 6.97% | 26.3% | 43.9% | 47.3% | 50.5% | 60.7% | Cc1ccc(C2=NN(c3ccccc3)C(c3ccc(OC4CCCC4)cc3)C2)cc1 (stereo not drawn) [8b, 5-(4-(Cyclopentyloxy)phenyl)-1-phenyl-3-(4-methylphenyl)-4,5-dihydro-1H-pyrazole] | 88.5% | IC50 [2]: 5.5 to 7.8 µM; inhibition at 10 µM (EGFR kinase): 64.9%; Conc. (Average), ELISA read-out (EGFR kinase; sample at 0.15uM): 125.5; Conc. (Average), ELISA read-out (EGFR kinase; sample at 0.31uM): 99.48; Conc. (Average), ELISA read-out (EGFR kinase; sample at 0.62uM): 75.74; Conc. (Average), ELISA read-out (EGFR kinase; sample at 1.25uM): 71.11; Conc. (Average), ELISA read-out (EGFR kinase; sample at 2.5uM): 66.76; Conc. (Average), ELISA read-out (EGFR kinase; sample at 5uM): 52.98; Conc. (Average), ELISA read-out (EGFR kinase; sample at 10uM): 47.37
85.4 ± 5.31 µM | 87.1 ± 5.24 µM | 89.4 ± 4.89 µM | > 100 µM |  |  |  |  |  |  |  |  |  |  |  |  |  |  |  | O=C(O)c1cc(C=Cc2ccc(OC3CCCC3)cc2)nc2ccc(Br)cc12 [12a, 6-Bromo-2-(4-(cyclopentyloxy)styryl)quinoline-4-carboxylicacid] |  | melting point: > 300 °C
5.4 ± 0.25 µM | 7.1 ± 0.49 µM | 6.2 ± 0.67 µM |  | 5.4 to 7.6 µM |  |  |  |  |  |  |  |  |  |  |  |  |  |  | CN(C)C/C=C/C(=O)Nc1cc2c(Nc3ccc(F)c(Cl)c3)ncnc2cc1O[C@H]1CCOC1 [Afatinib, reference compound] |  | IC50 (PC-3 cells; Homo sapiens, PC-3, MTT): 7.6 µM; IC50 (PC-3 cells; MTT): 7.7 ± 0.57 µM
 |  |  |  |  |  |  |  |  |  |  |  |  |  |  |  |  |  |  | O=C1O[C@H]([C@@H](O)CO)C(O)=C1O [Ascorbic acid, L-Ascorbic acid, reference compound] | 90.0% | 
8 ± 0.38 µM | 7.5 ± 0.54 µM | 10.3 ± 1.13 µM | 13.3 ± 1.26 µM | 5.5 to 18.1 µM | 1.6 µM | 8.22% | 31.78% | 43.27% | 49.65% | 52.86% | 65.98% | 72.78% | 8.23% | 31.8% | 43.3% | 49.7% | 52.9% | 66% | CCOC(=O)C1=C(C)OC(N)=C(C#N)C1c1ccc(OC2CCCC2)cc1 (stereo not drawn) [compound 7, ethyl 6-amino-5-cyano-4-(4-(cyclopentyloxy)phenyl)-2-methyl-4H-pyran-3-carboxylate] | 75.8% | inhibition at 10 µM (EGFR kinase): 72.8%; Conc. (Average), ELISA read-out (EGFR kinase; sample at 0.15uM): 123.8; Conc. (Average), ELISA read-out (EGFR kinase; sample at 0.31uM): 92.02; Conc. (Average), ELISA read-out (EGFR kinase; sample at 0.62uM): 76.52; Conc. (Average), ELISA read-out (EGFR kinase; sample at 1.25uM): 67.92; Conc. (Average), ELISA read-out (EGFR kinase; sample at 2.5uM): 63.59; Conc. (Average), ELISA read-out (EGFR kinase; sample at 5uM): 45.89; Conc. (Average), ELISA read-out (EGFR kinase; sample at 10uM): 36.71
80.9 ± 5.34 µM | 70.9 ± 4.98 µM | 51.2 ± 3.82 µM | 41.9 ± 2.87 µM |  |  |  |  |  |  |  |  |  |  |  |  |  |  |  | Cc1ccc(-c2cc(-c3ccc(OC4CCCC4)cc3)c(C#N)c(=O)[nH]2)cc1 [compound 10, 4-(4-(cyclopentyloxy)phenyl)-2-oxo-6-(4-methylphenyl)-1,2-dihydropyridine-3-carbonitrile] |  | melting point: 278 to 280 °C
